In patent US8022268B2, “Transgenic animal model for alzheimer's disease” (The University of Zurich, priority 2007, dated 2011):

Columns and labels:
arcAβ mice = assay: fMRI vascular reactivity to acetazolamide (cerebral blood volume) after passive immunization; assay type: in vivo; details: transgenic (tg) arcAβ mice after 2 months antibody treatment
Method: (§1) 24 month old arcAβ mice were injected weekly i.p. with recombinant human NI-101.10 or Humira control antibody (3 mg/kg body weight) over a time period of 2 months (8 injections). The allocation of mice to the individual groups was: n=[…] and 4 wt for the NI-101.10 treatment groups; n=[…] and 6 wt for the control antibody treatment groups.
ArcAβ mice and their wildtype littermates were measured before (n=3 tg and 3 wt) or after the antibody treatment (n=5 tg NI-101.10, 4 tg Humira, […], 6 wt Humira). Mice were anesthetized with Isofluran, intubated and artificially ventilated during the MR experiment. The mice were placed on a water-heated cradle and all agents were injected via cannula into the tail vein. Experiments were performed on a 4.7 Tesla Pharmascan 47/16 (Bruker BioSpin GmbH, Germany). Scan parameters of the RARE sequence (Hennig et al., Magn. Reson. Med. 3 (1986), 823-833) were set as followed: spatial resolution: 156×156×700 μm^3, temporal resolution: 40 s, repetition time: 2500 ms, echo time (eff. TE): 80.2 ms, field of view (FOV): 2×1.3 cm^2, RARE factor: 32, matrix dimension: 128×128, slice thickness: 0.7 mm, inter-slice distance: 1.2 mm, number of averages: 4, number of slices: 5. fMRI measurement comprised 3 phases: 8 baseline images (S pre) were acquired as reference for the determination of the relative cerebral blood volume (CBVrel) changes. […]

brain β-amyloid plaques = assay: Blood brain barrier penetration and binding to Aβ deposits after peripheral administration (double staining with 6E10 and anti-human IgG); assay type: in vivo; details: 24 month arcAβ mice, 3 mg/kg i.p. weekly for 2 months; 6E10 and anti-human IgG double staining
Method: ArcAβ mice were generated as described in the previous Examples on a hybrid background of C57B1/6 and DBA2. The test group was backcrossed once to C57B1/6. Mice were kept under standard housing conditions on a reversed 12 h:12 h light/dark cycle and had free access to food and water. The treatment groups were balanced for age and gender.
Recombinant human anti-Aβ antibody NI-101.10 was produced in stably transfected 293 HEK cells and purified using standard Protein A column purification. Control antibody Humira (Adalimumab, Abbott, Switzerland) was dissolved in medium conditioned by 293 HEK cells and purified as described.
as §1
Mice were anesthetized (10 ul/g bw ketamin/xylaxine) and perfused transcardially with PBS. One brain hemisphere was dissected into cortex, hippocampus and cerebellum and immediately frozen on dry-ice for further biochemical analysis. The other hemisphere was fixed in 4% paraformaldehyde and embedded in paraffin. 5 μm sagittal sections were cut with a Leica RM 2135 microtome (Bannockburn, Ill.). […]

Adalimumab [Humira]
mean ACBV % (integrated, after acetazolamide 30 mg/kg) (arcAβ mice): 500% | binding of human antibody to Aβ deposits in brain sections (brain β-amyloid plaques): No such binding
